Measurements from paper PMC11728000, “Antitumor Activity and Multi-Target Mechanism of Phenolic Schiff Bases Bearing Methanesulfonamide Fragments: Cell Cycle Analysis and a Molecular Modeling Study” (International Journal of Molecular Sciences, 2024).
Where two headings read alike, the source gives them in different places.

Key:
IGROV1 = test: NCI anticancer screening (SRB), Ovarian Cancer subpanel; type: cell-based, human; settings: for GI%: 10.0 µM in one dose
NCI/ADR-RES = test: as above; type: cell-based, human; settings: for GI%: 10.0 µM in one dose
RPMI-8226 = test: NCI anticancer screening (SRB), Leukemia subpanel; type: cell-based, human
NCI-H322M = test: NCI anticancer screening (SRB), Non-Small Cell Lung Cancer subpanel; type: cell-based, human
NCI-H522 = test: as above; type: cell-based, human
COLO 205 = test: NCI anticancer screening (SRB), Colon Cancer subpanel; type: cell-based, human
HT29 = test: as above; type: cell-based, human
SNB-75 = test: NCI anticancer screening (SRB), CNS Cancer subpanel; type: cell-based, human
UACC-257 = test: NCI anticancer screening (SRB), Melanoma subpanel; type: cell-based, human
[1] = test system: Leukemia subpanel tumor cell lines; test: NCI anticancer screening, subpanel summary; type: cell-based; settings: Leukemia, mean over subpanel cell lines
[2] = test system: NSC Lung Cancer subpanel tumor cell lines; test: NCI anticancer screening, subpanel summary; type: cell-based; settings: NSC Lung Cancer, mean over subpanel cell lines
[3] = test system: Colon Cancer subpanel tumor cell lines; test: NCI anticancer screening, subpanel summary; type: cell-based; settings: mean over subpanel cell lines
[4] = test system: CNS Cancer subpanel tumor cell lines; test: NCI anticancer screening, subpanel summary; type: cell-based; settings: mean over subpanel cell lines
[5] = test system: Melanoma subpanel tumor cell lines; test: NCI anticancer screening, subpanel summary; type: cell-based; settings: mean over subpanel cell lines
[6] = test system: Ovarian Cancer subpanel tumor cell lines; test: NCI anticancer screening, subpanel summary; type: cell-based; settings: Ovarian Cancer, mean over subpanel cell lines
[7] = test system: Renal Cancer subpanel tumor cell lines; test: NCI anticancer screening, subpanel summary; type: cell-based; settings: mean over subpanel cell lines
[8] = test system: Prostate Cancer subpanel tumor cell lines; test: NCI anticancer screening, subpanel summary; type: cell-based; settings: mean over subpanel cell lines
[9] = test system: Breast Cancer subpanel tumor cell lines; test: NCI anticancer screening, subpanel summary; type: cell-based; settings: Breast Cancer, mean over subpanel cell lines
MCF-7 cells [10] = test: Annexin V-FITC/PI apoptosis assay; type: cell-based, human; settings: 24 h
MCF-7 cells [11] = test: Cell cycle analysis (PI flow cytometry); type: cell-based, human; settings: 10 μM, 24 h
Description: Apoptosis is the primary mechanism by which potent chemotherapeutic agents destroy cancer cells. […] Flow cytometry measured cell growth in the G0-G1, S, and G2/M cell cycle phases.
Using the MCF-7 cell line, the cell cycle analysis was carried out like our previous investigation. A FACSCalibur flow cytometer was used to analyze the cells after they had been stained with DNA fluorochrome PI (Supplementary Materials). […]
photomultiplier voltage and for compensation setting adjustment to eliminate spectral overlap between the FL1 and the FL2 signals.
6. Cell cycle analysis
Breast carcinoma (MCF-7) cell was seeded at 2 × 10^5 cells/well density and incubated for 24 h in six-well plates. Foetal bovine serum (10%) was added, and the cells were incubated at 37 °C in an atmosphere of 5% CO2. The medium was replaced with 1% (v/v) DMSO containing 10.0 μM of […]
with 70% ethanol, rinsed with phosphate-buffered saline, and then stained with the DNA fluorochrome propidium iodide (PI) for 15 min at 37 °C. Then, samples were analyzed by flow cytometry using a FACSCalibur (Becton Dickinson). The cell cycle distributions were calculated using CellQuest software (Becton Dickinson). […]

[12] = test system: 59 human cancer cell lines; test: NCI anticancer screening, full panel summary
[13] = Homo sapiens, five concentrations
[14] = Homo sapiens, read-out: LC50, subpanel average

CS(=O)(=O)Nc1ccc(C(=O)NN=Cc2ccccc2O)cc1 [Compound 7]
GI% (IGROV1): 25% | GI% (NCI/ADR-RES): 41%

CCN(CC)c1ccc(C=NNC(=O)c2ccc(NS(C)(=O)=O)cc2)c(O)c1 [Compound 8]
GI% (RPMI-8226; 10.0 µM in one dose): 84% | GI50 (RPMI-8226; Homo sapiens, PRMI-8226, five concentrations): 2.72 µM | GI% (NCI-H322M; 10.0 µM in one dose): 75% | GI50 (NCI-H322M; [13]): 0.258 µM | GI% (NCI-H522; 10.0 µM in one dose): 88% | GI50 (NCI-H522; [13]): 0.36 µM | GI% (COLO 205; 10.0 µM in one dose): 94% | GI50 (COLO 205; [13]): 0.349 µM | GI% (HT29; 10.0 µM in one dose): 73% | GI50 (HT29; Homo sapiens, HT-29, five concentrations): 0.495 µM | GI% (SNB-75; 10.0 µM in one dose): 52% | GI50 (SNB-75; [13]): 0.519 µM | GI% (UACC-257; 10.0 µM in one dose): > 100% | GI50 (UACC-257; [13]): 0.463 µM | GI% (IGROV1): 80% | GI50 (IGROV1; Homo sapiens, IGROV-1, five concentrations): 0.544 µM | GI% (NCI/ADR-RES): 63% | GI50 (NCI/ADR-RES; [13]): 2.58 µM | GI50 ([1]; Homo sapiens): 0.7 µM | CC50 [1, 14]: > 100 µM | TGI, subpanel average [1]: 79.88 µM | GI50 ([2]; Homo sapiens): 0.622 µM | CC50 [2, 14]: 94.9 µM | TGI, subpanel average [2]: 22.08 µM | GI50 ([3]; Homo sapiens): 0.4 µM | LC50 (NCI-60 lethal concentration, subpanel average) ([3]; Homo sapiens): 80.1 µM | TGI, subpanel average [3]: 30.53 µM | GI50 ([4]; Homo sapiens): 0.451 µM | CC50 [4, 14]: 86.6 µM | TGI, subpanel average [4]: 14.14 µM | GI50 ([5]; Homo sapiens): 0.563 µM | CC50 [5, 14]: 93.6 µM | TGI, subpanel average [5]: 21.64 µM | GI50 ([6]; Homo sapiens): 1.03 µM | CC50 [6, 14]: 94.9 µM | GI50 [6]: 1.03 µM | TGI, subpanel average [6]: 52.90 µM | GI50 ([7]; Homo sapiens): 0.826 µM | CC50 [7, 14]: 80.6 µM | TGI, subpanel average [7]: 23.37 µM | GI50 ([8]; Homo sapiens): 0.527 µM | CC50 [8, 14]: 98 µM | TGI, subpanel average [8]: 60.80 µM | TGI, subpanel average [9]: 15.22 µM | GI50 ([9]; Homo sapiens): 0.599 µM | CC50 [9, 14]: 99.9 µM | Necrosis (MCF-7 cells [10]): 6.08% | Total Apoptosis (MCF-7 cells [10]; annexin V-FITC/PI): 38.16% | Early Apoptosis (MCF-7 cells [10]; lower-right quadrant): 22.49% | Late Apoptosis (MCF-7 cells [10]; upper-right quadrant): 9.59% | %G0–G1 (MCF-7 cells [11]): 51.94% | %G2-M (MCF-7 cells [11]): 14.64% | %S (MCF-7 cells [11]): 33.42% | Comment (cell cycle arrest phase) (MCF-7 cells [11]): Growth arrest@ S | GI50 ([12]; Homo sapiens, read-out: GI50 MG-MID): 0.501 µM | GI50 ([12]; Homo sapiens, read-out: GI50 range over the cell lines): 0.141 to 2.72 µM | CC50 ([12]; Homo sapiens, read-out: LC50 MG-MID): > 100 µM | TGI MG-MID ([12]; full panel mean-graph midpoint): 46.8 µM | PCE (positive cytotoxic effect) ([12]; ratio of cell lines with growth inhibition > 10% to total cell lines, 10 µM single dose): 59/59
